{"source": "patent US6717015B2", "about": "(priority 2002, dated 2004)", "key": {"[1]": {"test": "Water uptake / hygroscopicity on storage at 40° C. and 75% relative humidity"}, "[2]": {"test": "Water uptake on exposure to air for 13 days"}}, "note": "Like-named read-outs stand apart in the source and are kept apart here."}
{"smiles": "COc1ccc(C(CN(C)C)C2(O)CCCCC2)cc1", "note": "(racemic) [Example 4A, Venlafaxine Besylate Anhydrate]", "values": [{"measurement": "water content after storage (K. Fischer)", "setting": "[1]; 3 days at 40° C. and 75% relative humidity", "value": 4, "unit": "%"}, {"measurement": "hygroscopicity", "setting": "[1]; listed as Anhydrous (+/−)-venlafaxine besylate", "value": "hygroscopic"}]}
{"smiles": "COc1ccc(C(CN(C)C)C2(O)CCCCC2)cc1", "note": "(centres unmarked) [Example 4D, Less hydrated Venlafaxine Besylate]", "values": [{"measurement": "water present after exposure to air (Karl-Fischer)", "setting": "[2]; exposed to air for 13 days at room temperature", "value": "1 molar equivalent of water"}]}
{"smiles": "COc1ccc(C(CN(C)C)C2(O)CCCCC2)cc1", "note": "(racemic) [venlafaxine besylate monohydrate]", "values": [{"measurement": "uptake of water after storage", "setting": "[1]; 40° C., relative humidity 75%", "value": "No uptake of water"}, {"measurement": "hygroscopicity", "setting": "[1]; besylate monohydrate", "value": "substantially non-hygroscopic"}]}
{"smiles": "COc1ccc(C(CN(C)C)C2(O)CCCCC2)cc1", "note": "(single isomer, unassigned; (-)) [Example 5, (−)-Isomer of Venlafaxine Besylate]", "values": [{"measurement": "hygroscopicity", "setting": "[1]", "value": "less hygroscopic"}]}
{"smiles": "COc1ccc(C(CN(C)C)C2(O)CCCCC2)cc1", "note": "(centres unmarked) [Example 4B, Amorphous Venlafaxine Besylate]", "values": [{"measurement": "water present after exposure to air (Karl-Fischer)", "setting": "[2]; exposed to air for 13 days", "value": "1 equivalent of water"}]}
{"smiles": "COc1ccc(C(CN(C)C)C2(O)CCCCC2)cc1", "note": "(single isomer, unassigned; (+)) [Example 6, (+)-Isomer of Venlafaxine Besylate]", "values": [{"measurement": "hygroscopicity", "setting": "[1]", "value": "less hygroscopic"}]}
